Data set [1] deals with T1, Human FXIa (Homo sapiens, UniProt P03951).
T1 construct: purchased HTI, Essex Junction, USA
Kind of data set: FXIa enzymatic chromogenic assay. It counts as biochemical. The method, then:
(§1) Enzymatic assay. […] Selected compounds were also screened against other serine proteases to evaluate their selectivity profiles.
(§2) Once the compounds were synthesized and characterized, enzymatic assays were performed to evaluate the inhibitory activity of the resulting compounds against FXIa and other serine proteases. […] IC50 values for the compounds were determined using equation: Q= V/(1+([I]/IC50)^n) Q denotes the assay readout, V denotes the uninhibited velocity of the enzyme, [I] denotes the inhibitor concentration, n denotes the slope and IC50 is the inhibitor concentration at V/2.
(§3) [S] denotes the substrate concentration.

In data set [2] the target is Human FIXa (Homo sapiens, UniProt P00740). The data set is described as follows: biochemical. Particulars: read-out: FIXa % inhibition at 99 μM. Here is the method:
as §1, §2

In data set [3] the target is Human FXa (Homo sapiens, UniProt P00742). The data set is described as follows: biochemical. Particulars: read-out: FXa % inhibition at 99 μM. Here is the method:
as §1, §2

Data set [4] has as its target T2, Human recombinant thrombin (Homo sapiens, UniProt P00734).
T2 construct: Human recombinant thrombin was prepared in house; made in house
The data set is described as follows: Thrombin (FIIa) chromogenic assay. It counts as biochemical. The note with it: for inhibition at 99 µM: read-out: FIIa % inhibition at 99 μM. The method, then:
as §1, §2, §3
Thrombin. Human recombinant thrombin was prepared in house.

Data set [5] addresses Recombinant human trypsin (Homo sapiens, UniProt P07477). The data set is described as follows: biochemical. Particulars: read-out: Trypsin % inhibition at 99 μM. Here is the method: as §1, §2
Trypsin. Recombinant human trypsin was from Polymun, Vienna, Austria.

In data set [6] the target is T3, Human PKK (Homo sapiens, UniProt P03952).
T3 construct: trypsin, plasma kallikrein (PKK), FIXa; purchased Calbiochem, Darmstadt, Germany
T3 sequence (P03952 391-638 limits assumed): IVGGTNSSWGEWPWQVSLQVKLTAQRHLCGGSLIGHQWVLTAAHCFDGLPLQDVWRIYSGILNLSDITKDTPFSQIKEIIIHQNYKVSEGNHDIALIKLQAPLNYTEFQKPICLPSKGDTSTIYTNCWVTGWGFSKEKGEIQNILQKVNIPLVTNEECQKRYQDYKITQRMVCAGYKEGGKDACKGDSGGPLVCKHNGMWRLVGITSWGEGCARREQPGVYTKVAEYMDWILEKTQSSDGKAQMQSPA
T3 sequence (P03952 20-390 partner limits assumed): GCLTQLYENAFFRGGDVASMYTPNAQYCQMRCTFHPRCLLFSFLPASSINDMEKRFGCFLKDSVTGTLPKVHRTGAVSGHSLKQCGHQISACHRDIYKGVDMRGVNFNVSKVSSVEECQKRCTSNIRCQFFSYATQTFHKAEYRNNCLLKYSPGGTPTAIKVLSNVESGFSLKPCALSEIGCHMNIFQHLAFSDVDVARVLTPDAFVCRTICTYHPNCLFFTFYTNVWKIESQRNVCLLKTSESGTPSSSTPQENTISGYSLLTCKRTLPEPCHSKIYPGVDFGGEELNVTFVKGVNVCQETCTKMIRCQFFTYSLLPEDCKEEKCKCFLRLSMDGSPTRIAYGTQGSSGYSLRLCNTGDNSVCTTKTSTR
Kind of data set: PKK (plasma kallikrein) chromogenic assay. It counts as biochemical. The note with it: for Ki: converted from IC50. The method, then: as §1, §2, §3
PKK. Human PKK was from Calbiochem, Darmstadt, Germany.

The target in data set [7] is Human tPA (Homo sapiens, UniProt P00750). Kind of data set: biochemical. The note with it: read-out: tPA % inhibition at 99 μM. The method, then: as §1, §2
Chain of Human tPA (P00750 36-562): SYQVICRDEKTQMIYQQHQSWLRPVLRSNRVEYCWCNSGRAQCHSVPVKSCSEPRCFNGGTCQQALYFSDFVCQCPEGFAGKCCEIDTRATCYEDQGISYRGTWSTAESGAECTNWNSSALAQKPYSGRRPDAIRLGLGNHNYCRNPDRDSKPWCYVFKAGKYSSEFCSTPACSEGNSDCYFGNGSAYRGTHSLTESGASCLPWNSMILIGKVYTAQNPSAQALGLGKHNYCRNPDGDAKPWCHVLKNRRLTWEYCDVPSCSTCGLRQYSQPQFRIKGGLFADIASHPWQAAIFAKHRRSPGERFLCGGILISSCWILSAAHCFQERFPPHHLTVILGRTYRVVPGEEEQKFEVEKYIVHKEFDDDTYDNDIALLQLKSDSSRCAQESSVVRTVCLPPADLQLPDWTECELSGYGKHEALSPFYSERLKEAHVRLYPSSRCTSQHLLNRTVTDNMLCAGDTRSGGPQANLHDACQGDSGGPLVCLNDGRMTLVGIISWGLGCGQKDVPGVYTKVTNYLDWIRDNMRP
tPa. Human tPA was from Biopool, Umeå, Sweden.

The target in data set [8] is T4, Human plasmin (Homo sapiens, UniProt P00747).
T4 construct: Human plasmin was from Enzyme Research Laboratories, Swansea, UK; purchased Enzyme Research Laboratories, Swansea, UK
T4 sequence (P00747 581-810 limits assumed): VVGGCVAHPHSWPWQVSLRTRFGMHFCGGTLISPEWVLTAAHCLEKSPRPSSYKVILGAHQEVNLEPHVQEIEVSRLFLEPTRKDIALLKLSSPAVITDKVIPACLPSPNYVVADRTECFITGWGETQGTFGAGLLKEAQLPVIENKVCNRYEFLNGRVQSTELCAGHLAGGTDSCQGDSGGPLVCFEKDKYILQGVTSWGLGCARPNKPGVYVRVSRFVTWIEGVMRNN
T4 sequence (P00747 97-580 partner limits assumed): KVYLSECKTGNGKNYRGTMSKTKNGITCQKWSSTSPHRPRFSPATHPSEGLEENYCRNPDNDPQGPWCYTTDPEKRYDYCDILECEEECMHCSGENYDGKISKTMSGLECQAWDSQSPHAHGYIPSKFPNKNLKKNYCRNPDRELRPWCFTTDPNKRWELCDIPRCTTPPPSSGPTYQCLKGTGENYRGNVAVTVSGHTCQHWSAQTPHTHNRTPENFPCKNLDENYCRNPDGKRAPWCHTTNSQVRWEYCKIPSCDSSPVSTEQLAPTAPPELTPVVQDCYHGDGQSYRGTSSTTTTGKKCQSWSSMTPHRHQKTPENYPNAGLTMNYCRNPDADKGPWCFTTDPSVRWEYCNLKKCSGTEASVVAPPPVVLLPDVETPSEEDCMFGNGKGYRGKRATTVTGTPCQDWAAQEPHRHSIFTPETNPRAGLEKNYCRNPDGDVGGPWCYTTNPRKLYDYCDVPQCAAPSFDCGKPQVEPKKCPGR
Kind of data set: Plasmin chromogenic assay. The note with it: for inhibition at 99 µM: read-out: Plasmin % inhibition at 99 μM. It counts as biochemical. The method, then:
as §1, §2, §3
Plasmin. Human plasmin was from Enzyme Research Laboratories, Swansea, UK.

The subject of data set [9] is Caco2 cells. The data set is described as follows: Caco2 permeability. It counts as in vitro ADME. Particulars: measured at pH 7.4 at side A. Here is the method: A monolayer of Caco2 cells, cultured on semi-permeable polycarbonate surfaces, was used to study the permeability in the apical to basolateral direction. The process was atomized by a robotic Tecan EVO platform (Männerdorf, Switzerland) and 24-transwell plates from Costar (Cambridge, MA, USA). HBSS buffer pH 7.4 was dispensed to the basal side of the monolayer. […] Samples for quantitative analysis by LC/MS/MS were withdrawn before the addition of the test substrate and at 45 and 120 min post addition of the test substrate. During incubation the transwell plates were placed in a shaking incubator at 37°C between sampling. The peak areas were exported to Excel where Papp-values and recoveries were calculated. Twenty-two reference compounds with known human oral bioavailability were used to establish a correlation curve with Papp versus the fraction of the oral dose absorbed (fa).
For orientation: Caco-2 monolayers are a common model of the intestinal barrier.

A short description of data set [10]: Caco2 efflux. It counts as in vitro ADME. The note with it: human, Caco-2; Caco2, Papp B to A / Papp A to B, pH 7.4 at side A. The source says:
Efflux was studied in the same Caco2 cells with the modification that HBSS buffer pH 7.4 was used on both sides of the monolayer. The permeability was studied in the apical to basolateral direction (Papp AB) as well as in the basolateral to apical direction and (Papp BA). Efflux ratios were derived from the following equation: Papp BA/Papp AB.

Data set [11] concerns rat hepatocytes. Kind of data set: Rat hepatocyte metabolic stability assay. It counts as in vitro ADME. Here is the method: Rat hepatocyte metabolic stability was determined in accordance with the method described by Jacobson et al.. Cryo preserved hepatocytes at a concentration of 10^6 viable cells/mL were used. After thawing, hepatocytes were incubated for 10 min to warm to 37°C and test compounds, dissolved in acetonitrile, were added to give a final concentration of 1 μM. At 0.5, 5, 15, 30, 45, 60, 80, 100 and 120 min, the incubation system was mixed and 20 μL aliquots were transferred at each time point to wells in a separate plate filled with 80 μL acetonitrile to stop the reaction. The quenching plate was then vortexed followed by centrifugation, and supernatants were analyzed by LC/MS/MS. Peak areas were determined from extracted ion chromatograms, and the in vitro intrinsic clearance (in vitro CLint, in μL/min/10^6 cells) of parent compound was calculated from the slope in the regression analysis of the natural logarithm of parent concentration vs. time curve.

The results in this text go back to PMC4309560, “Creating Novel Activated Factor XI Inhibitors through Fragment Based Lead Generation and Structure Aided Drug Design” (PLoS ONE, 2015).

Where two headings read alike, the source gives them in different places. Some results are limits rather than exact numbers.

T1 sequence (P03951 388-625): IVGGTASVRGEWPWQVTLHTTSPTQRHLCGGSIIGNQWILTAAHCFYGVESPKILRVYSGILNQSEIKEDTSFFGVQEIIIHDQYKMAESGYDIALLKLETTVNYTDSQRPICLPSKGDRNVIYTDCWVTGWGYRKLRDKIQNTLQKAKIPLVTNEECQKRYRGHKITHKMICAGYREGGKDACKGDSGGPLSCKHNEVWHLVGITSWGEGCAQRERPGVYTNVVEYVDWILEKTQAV
T1 sequence (P03951 19-387): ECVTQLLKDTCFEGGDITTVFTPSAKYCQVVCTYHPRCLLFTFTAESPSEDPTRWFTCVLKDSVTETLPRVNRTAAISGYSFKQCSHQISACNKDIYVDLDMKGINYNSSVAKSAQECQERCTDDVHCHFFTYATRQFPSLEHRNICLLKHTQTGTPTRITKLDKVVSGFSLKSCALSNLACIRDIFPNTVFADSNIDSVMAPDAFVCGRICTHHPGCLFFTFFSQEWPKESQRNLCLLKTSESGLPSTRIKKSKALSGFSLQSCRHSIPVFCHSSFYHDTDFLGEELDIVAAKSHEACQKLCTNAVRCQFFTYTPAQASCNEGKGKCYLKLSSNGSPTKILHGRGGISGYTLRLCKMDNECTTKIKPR
Chain of Human FXa (P00742 235-488 limits assumed): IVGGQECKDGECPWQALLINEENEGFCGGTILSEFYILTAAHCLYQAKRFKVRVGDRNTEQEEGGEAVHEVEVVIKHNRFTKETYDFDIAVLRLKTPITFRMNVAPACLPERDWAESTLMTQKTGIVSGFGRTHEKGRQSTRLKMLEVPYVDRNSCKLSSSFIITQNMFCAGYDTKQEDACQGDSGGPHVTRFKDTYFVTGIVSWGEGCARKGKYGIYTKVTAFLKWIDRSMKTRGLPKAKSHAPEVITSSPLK
Chain of Human FXa (P00742 41-179 partner limits assumed): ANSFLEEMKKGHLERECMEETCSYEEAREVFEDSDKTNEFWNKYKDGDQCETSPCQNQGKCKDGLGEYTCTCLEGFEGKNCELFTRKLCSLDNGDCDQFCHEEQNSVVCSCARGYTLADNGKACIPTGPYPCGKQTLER
Chain of Human FIXa (P00740 227-461 limits assumed): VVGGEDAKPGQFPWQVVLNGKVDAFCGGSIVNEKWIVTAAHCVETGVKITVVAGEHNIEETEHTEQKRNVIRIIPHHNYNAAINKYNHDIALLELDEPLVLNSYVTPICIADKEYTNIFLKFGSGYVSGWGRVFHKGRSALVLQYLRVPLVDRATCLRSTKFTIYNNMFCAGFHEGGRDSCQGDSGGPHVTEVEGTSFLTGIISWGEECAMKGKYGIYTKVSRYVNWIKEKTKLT
Chain of Human FIXa (P00740 47-191 partner limits assumed): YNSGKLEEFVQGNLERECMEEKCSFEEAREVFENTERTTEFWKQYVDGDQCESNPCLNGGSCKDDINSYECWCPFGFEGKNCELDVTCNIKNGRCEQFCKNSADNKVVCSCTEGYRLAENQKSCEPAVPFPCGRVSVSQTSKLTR

Consider `[H]/N=C(/N)c1ccc2cc(C(=O)Nc3ccccc3)cc(Nc3ncccn3)c2c1` [Compound 1], for which the IC50 (as a rule, the concentration needed to halve the response being measured) in [1] was below 0.14 µM.
For the compound `CCCS(=O)(=O)N[C@@H](C(=O)N[C@@H](CC(C)C)C(=O)NCc1ccc(C(=N)N)cc1)C1CCCCC1` [Compound 2, reference compound], in data set [1], the IC50 was found to be 0.11 µM; the Ki – broadly, the dissociation constant of the complex between target and ligand, obtained from inhibition or displacement – was 0.06 µM.
Consider `O=c1ccc2cc(Cl)ccc2[nH]1` [Compound 5], for which it took 140 µM to reach half-maximal inhibition in [1] (IC50). Further, in [1] (FXIa), the “ligand efficiency (LE)” value is reported as 0.44. The “-ΔG fragment (printed with reversed sign in the ΔG link equation)” value in data set [1] (FXIa, subtracted term, so ΔG itself is negative) is listed as 23.7 kJ/mol. Further, in data set [1] (read-out: FXIa Ki), the Ki was found to be 70 µM. Further, the inhibition at 99 µM in [2] was 1%; in data set [3], 31%; in data set [4], 8%; in data set [5], 0%; in data set [6] (read-out: PKK % inhibition at 99 μM), 5%; in [7], 0%. Further, in data set [8], the inhibition at 99 µM was determined as 31%.
As to `N=C(N)c1ccccc1` [Compound 7, benzamidine, reference compound], the midpoint of inhibition in data set [1], the IC50, lay at 610 µM.
As for `COC(=O)Nc1ccc(-c2nc(CNC(=O)CCc3cc(Cl)ccc3-n3cnnn3)[nH]c2Cl)cc1` [Compound 11, reference compound], the IC50 in data set [1] is 0.16 µM; in data set [4], 63 µM; in data set [6] it was 20 µM. The Ki in [1] worked out at 0.08 µM; in data set [4] (converted from IC50), 31 µM; in data set [6], 4.2 µM. Besides, the inhibition at 99 µM is 0% in data set [2]; 6% in data set [3]; 4% in data set [5]; 0% in data set [7]; 0% in data set [8].
Take `CC(=O)N[C@@H](Cc1ccccc1)C(=O)NCc1cc(=O)[nH]c2ccc(Cl)cc12` [Compound 14, (S)-2-Acetamido-N-{(6-chloro-2-oxo-1,2-dihydroquinolin-4-yl)methyl}-3-phenylpropanamide]: the IC50 in data set [1] is 33 µM; in data set [6], 59 µM. Moreover, the Ki in data set [1] worked out at 16 µM; in data set [6] it was 12 µM. Moreover, the “ligand efficiency (LE)” value in data set [1] (FXIa) is 0.22. Moreover, the inhibition at 99 µM in data set [2] is 4%; in data set [3], 0%; in data set [4], 9%; in data set [5], 18%; in data set [7], 3%; in data set [8] it was 7%.
Compound `CN(C)C(=O)[C@H](Cc1ccccc1)NC(=O)c1ccc2[nH]c(=O)cc(O)c2c1` [Compound 16, (S)-N-(1-(Dimethylamino)-1-oxo-3-phenylpropan-2-yl)-4-hydroxy-2-oxo-1,2-dihydroquinoline-6-carboxamide] registered an IC50 in [1] above 1000 µM. For the same compound, the inhibition at 1000 µM in [1] (read-out: FXIa % inh. at 1 mM) came to 36%.
In data set [1], `O=C1CC(CNC(=O)[C@H](Cc2ccccc2)NC(=O)c2ccc3[nH]c(=O)cc(O)c3c2)c2cc(Cl)ccc2N1` (some centres unmarked) [Compound 18, N-({2S}-1-({6-Chloro-2-oxo-1,2,3,4-tetrahydroquinolin-4-yl}methylamino)-1-oxo-3-phenylpropan-2-yl)-4-hydroxy-2-oxo-1,2-dihydroquinoline-6-carboxamide] displayed an IC50 of 0.01 µM and an inhibition constant Ki of 0.005 µM.
In the case of `Cc1cc(N)nc2ccccc12` [Compound 19], the IC50 in data set [1] amounted to 240 µM. For the same compound, in data set [1], affinity was put at a Ki of 120 µM. Moreover, the inhibition at 99 µM was found to be 7% in [2]; 9% in [3]; 8% in data set [4]; 43% in data set [5]; 7% in [7]; 8% in data set [8].
Turning to `O=C1CC(CC(=O)NC(Cc2ccccc2)C(=O)Nc2ccc(-c3nnn[nH]3)cc2)c2cc(Cl)ccc2N1` (centres unmarked) [Compound 20, N-(4-(1H-Tetrazol-5-yl)phenyl)-2-(2-(6-chloro-2-oxo-1,2,3,4-tetrahydroquinolin-4-yl)acetamido)-3-phenylpropanamide], the values for the IC50 in data set [1] and in data set [6] were 0.33 µM and 2.3 µM, respectively. For the same compound, the Ki in [1] came to 0.16 µM; in data set [6], 0.48 µM. Further, the inhibition at 99 µM was determined as 4% in data set [2]; 12% in data set [3]; 10% in [4]; 7% in data set [5]; 15% in [7]; 8% in [8].
Regarding `O=C(CC1Cc2cc(Cl)ccc2NC1=O)NC(Cc1ccccc1)C(=O)Nc1ccc(-c2nnn[nH]2)cc1` (centres unmarked) [Compound 21, N-(4-(1H-Tetrazol-5-yl)phenyl)-2-(2-(6-chloro-2-oxo-1,2,3,4-tetrahydroquinolin-3-yl)acetamido)-3-phenylpropanamide], the IC50 was found to be 1.9 µM in data set [1] and 25 µM in [6]. For the same compound, the Ki in [1] was 0.95 µM; in data set [6], 5.2 µM. Further, the inhibition at 99 µM was found to be 0% in [2]; 0% in [3]; 2% in data set [4]; 1% in data set [5]; 3% in data set [7]; 0% in data set [8].
With `O=C(Cc1cc2cc(Cl)ccc2[nH]c1=O)NC(Cc1ccccc1)C(=O)Nc1ccc(-c2nnn[nH]2)cc1` (centres unmarked) [Compound 22, N-(4-(1H-Tetrazol-5-yl)phenyl)-2-(2-(6-chloro-2-oxo-1,2-dihydroquinolin-3-yl)acetamido)-3-phenylpropanamide], the IC50 was determined as 10 µM in data set [1], 10 µM in data set [6] and 70 µM in data set [8]. In addition, the Ki in data set [1] is 5 µM; in data set [6] it was 2.1 µM; in data set [8] (converted from IC50), 33 µM. Moreover, the inhibition at 99 µM in data set [2] was 7%; in data set [3], 24%; in data set [4] it was 27%; in data set [5], 14%; in data set [7], 18%.
On to `O=C(CCc1cc2cc(Cl)ccc2[nH]c1=O)N[C@@H](Cc1ccccc1)C(=O)Nc1ccc(-c2nnn[nH]2)cc1` [Compound 23, (S)-N-(4-(1H-Tetrazol-5-yl)phenyl)-2-(3-(6-chloro-2-oxo-1,2-dihydroquinolin-3-yl)propanamido)-3-phenylpropanamide], for which, in [1], the IC50 came out at 67 µM and the affinity, expressed as Ki, was 34 µM.
The like results for `O=C(CCc1cc(=O)[nH]c2ccc(Cl)cc12)N[C@@H](Cc1ccccc1)C(=O)Nc1ccc(-c2nnn[nH]2)cc1` [Compound 24, (S)-N-(4-(1H-Tetrazol-5-yl)phenyl)-2-(3-(6-chloro-2-oxo-1,2-dihydroquinolin-4-yl)propanamido)-3-phenylpropanamide] were, in that order, 9 µM and 4.5 µM.
In [1], `Cc1c(-c2ccccc2)n[nH]c1C(=O)N(C)Cc1cc(=O)[nH]c2ccccc12` [Compound 27] yielded an IC50 of 99 µM and a Ki of 50 µM. Also, in [9], the “Caco2 A to B permeability” value was 12 1·10^-6 cm/s. For the same compound, the efflux ratio (usually a quotient of directional permeabilities that is used to spot active efflux) in [10] was 6.7. The “Rat CLint” value in data set [11] worked out at 58 μL/min/ 1·10^6 cells.
